In ChEMBL document CHEMBL1201862, “PubChem BioAssay data set” (2004):
The source made the active and inactive calls.

Assays:
[1] = molecular target: T1, DNA repair protein RAD52 homolog (Homo sapiens, UniProt P43351); format: functional, biochemical
T1 sequence (P43351 whole entry): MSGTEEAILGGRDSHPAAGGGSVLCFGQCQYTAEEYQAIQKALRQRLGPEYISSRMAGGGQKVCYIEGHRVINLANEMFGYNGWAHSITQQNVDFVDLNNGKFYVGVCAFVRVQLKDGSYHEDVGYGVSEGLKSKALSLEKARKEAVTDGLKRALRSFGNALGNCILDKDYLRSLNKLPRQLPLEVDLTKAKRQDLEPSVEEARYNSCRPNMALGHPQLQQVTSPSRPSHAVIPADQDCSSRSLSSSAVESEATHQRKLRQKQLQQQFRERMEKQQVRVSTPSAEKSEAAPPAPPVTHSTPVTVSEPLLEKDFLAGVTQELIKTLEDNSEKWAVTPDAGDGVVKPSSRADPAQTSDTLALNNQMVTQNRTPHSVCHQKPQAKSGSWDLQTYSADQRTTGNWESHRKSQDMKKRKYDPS

[2] = loss of viability in HepG2 cells – cell-based, CellTiter-Glo, cherry-picked, cytotoxicity control for Shn3 inhibitor project, dose response (AID 624134); format: functional
[3] = non-specific 3'UTR reporter inhibition in Clone20-Shn3RL – cell-based, Renilla luciferase, cherry-picked, counter-screen for Shn3 inhibitor project, dose response (AID 624133); format: functional
[4] = Luminescence Cell-Based Dose Response HTS to Identify Inhibitors of 5'UTR Stem-Loop Driven Prion Protein mRNA Translation in H4 Neuroglioblastoma Cells. [Related pubchem assays: 1827 (Project Summary), 1813 (Primary HTS)]; format: functional
[5] = Trypanosoma cruzi growth suppression in host cells – NIH3T3 host cells, beta-gal luminescence, confirmation (AID 2044); format: functional, cell-based;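 note: intracellular parasites grown in NIH/3T3 mouse fibroblasts as host cells; luminescent beta-galactosidase reporter signal from transgenic T. cruzi replicating inside host cells; inhibitors lower the luminescence signal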
[6] = luciferase reporter signal suppression in cells – H4 neuroglioma cells, luminescence, dose response (AID 1990); format: functional, cell-based
[7] = reduction of Shn3 3'UTR-driven luciferase in osteoblasts – cell-based, Clone20 osteoblasts, firefly luciferase, cherry-picked, dose response (AID 624132); format: functional;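 note: firefly luciferase luminescence from reporter carrying the Shn3 3'UTR in osteoblasts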
[8] = NIH3T3 cell viability loss – ATP luminescence, mouse fibroblasts, counter-screen, dose response (AID 2010); format: functional, cell-based;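 note: cells exposed to compound for about 90 hours before reading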
[9] = alpha-synuclein stem-loop luciferase translation blockers – H4 neuroglioma cells, luminescence, confirmation (AID 1988); format: functional, cell-based
[10] = A Cell Based Secondary Assay To Explore Cytotoxicity of Compounds that Sensitize Mycobacterium Tuberculosis to Beta-Lactam Antibiotics.; format: functional
BJ [11] = assay: cells; format: functional, cell-based; settings: Homo sapiens
[12] = HEK-293T viability loss after treatment – luminescence, T-cell screen hits, cytotoxicity control for TCR NF-kB inhibitor project, dose response (AID 489026); format: functional, cell-based;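 note: cells exposed to compound about 14 hours before the viability readout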
BJ [13] = assay: BJ-TERT fibroblast viability loss – cell-based, RAS-independent, luminescence, dose response (AID 1933); format: functional; settings: Homo sapiens
[14] = DRD fibroblast viability loss – cell-based, non-viral oncogenic, luminescence, dose response (AID 1934); format: functional; settings: Homo sapiens
BJ [15] = assay: BJ-TERT-LT-ST fibroblast viability loss – cell-based, RAS-independent, luminescence, dose response (AID 1935); format: functional; settings: Homo sapiens;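 note: BJ fibroblasts immortalized with TERT plus LT and ST oncogenes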
Genome polyprotein = Genome polyprotein (dengue virus type 2, UniProt P29990); assay: flavivirus cap methylation enzyme inhibition – biochemical, confirmation dose response, primary screen (AID 588689); format: functional
[16] = molecular target: T2, Carboxy-terminal domain RNA polymerase II polypeptide A small phosphatase 1 (Homo sapiens, UniProt Q9GZU7); assay: CTDSP1 inhibitors, concentration-response, biochemical, absorbance readout, ultra-high-throughput screen actives (AID 540297); format: functional
T2 sequence (Q9GZU7 whole entry): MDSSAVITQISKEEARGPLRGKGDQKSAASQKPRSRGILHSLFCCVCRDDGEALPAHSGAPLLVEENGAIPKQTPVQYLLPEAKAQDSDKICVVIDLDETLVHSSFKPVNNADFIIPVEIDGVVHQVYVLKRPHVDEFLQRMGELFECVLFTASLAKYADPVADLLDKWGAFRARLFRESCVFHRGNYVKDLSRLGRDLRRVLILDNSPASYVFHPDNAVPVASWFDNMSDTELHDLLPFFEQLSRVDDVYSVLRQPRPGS

[17] = molecular target: T3, Rac GTPase-activating protein 1 (Homo sapiens, UniProt Q9H0H5); assay: blockers of MgcRacGAP-driven Rac1 GTP hydrolysis – biochemical, ADP Hunter fluorescence, primary and confirmatory, confirmation (AID 624330); format: functional
T3 sequence (Q9H0H5 whole entry): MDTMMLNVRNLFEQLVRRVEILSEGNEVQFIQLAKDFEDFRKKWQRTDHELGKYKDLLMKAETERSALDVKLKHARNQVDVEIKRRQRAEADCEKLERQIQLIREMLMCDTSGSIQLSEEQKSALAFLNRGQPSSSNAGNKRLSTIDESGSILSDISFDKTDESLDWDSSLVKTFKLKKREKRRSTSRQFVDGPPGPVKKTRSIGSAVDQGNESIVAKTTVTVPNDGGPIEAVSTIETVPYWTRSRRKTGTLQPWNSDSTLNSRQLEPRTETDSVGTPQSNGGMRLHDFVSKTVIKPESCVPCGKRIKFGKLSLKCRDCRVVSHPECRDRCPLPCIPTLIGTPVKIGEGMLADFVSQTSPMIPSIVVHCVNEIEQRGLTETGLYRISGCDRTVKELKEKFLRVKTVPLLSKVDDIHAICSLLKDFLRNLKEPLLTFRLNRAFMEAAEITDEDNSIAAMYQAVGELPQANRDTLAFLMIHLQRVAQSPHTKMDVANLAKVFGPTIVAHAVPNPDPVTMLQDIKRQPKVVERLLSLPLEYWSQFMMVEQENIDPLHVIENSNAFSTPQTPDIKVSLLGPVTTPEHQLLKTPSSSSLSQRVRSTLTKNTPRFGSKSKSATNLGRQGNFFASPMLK

[18] = molecular target: T4, High affinity choline transporter 1 (Homo sapiens, UniProt Q9GZV3); assay: human choline transporter blockers, potency – cell-based, 5-point CRC, membrane potential dye, dose response (AID 504840); format: functional
T4 sequence (Q9GZV3 whole entry): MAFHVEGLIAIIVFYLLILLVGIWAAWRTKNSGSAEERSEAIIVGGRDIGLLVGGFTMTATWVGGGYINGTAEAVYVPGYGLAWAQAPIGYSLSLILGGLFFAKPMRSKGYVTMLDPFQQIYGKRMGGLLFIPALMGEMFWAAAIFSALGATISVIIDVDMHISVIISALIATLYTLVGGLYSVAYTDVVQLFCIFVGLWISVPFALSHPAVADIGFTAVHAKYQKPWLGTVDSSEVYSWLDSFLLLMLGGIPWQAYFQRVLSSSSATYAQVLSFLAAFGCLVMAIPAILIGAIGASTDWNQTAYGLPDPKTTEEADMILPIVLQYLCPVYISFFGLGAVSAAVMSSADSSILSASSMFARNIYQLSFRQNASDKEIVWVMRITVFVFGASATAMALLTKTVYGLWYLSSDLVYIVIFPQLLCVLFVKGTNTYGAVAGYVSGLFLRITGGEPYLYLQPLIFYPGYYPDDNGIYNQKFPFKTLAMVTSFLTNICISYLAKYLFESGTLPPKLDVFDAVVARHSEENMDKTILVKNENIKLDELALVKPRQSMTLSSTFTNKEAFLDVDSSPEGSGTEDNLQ

INS1 = assay: INS-1E survival protection against cytokine death – cell-based, luminescence, retest, dose response (AID 449756); format: functional; settings: Rattus norvegicus;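 note: cell death triggered by IL-1 beta plus TNF-alpha plus IFN-gamma mixture; protective hits raise ATP signal compared with cytokine alone wells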
[19] = molecular target: T5, Heat shock factor protein 1 (Mus musculus, UniProt P38532); assay: enhancement of HSF1-driven luciferase signal – cell-based, NIH3T3, luminescence, dose retest, confirmation (AID 435004); format: functional;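 note: stress induced by proteasome inhibitor MG132 added 30 min after compound; luciferase reporter driven by HSF1 response element in NIH3T3 cells; actives raise luminescence as potentiators of the MG132 stress response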
T5 sequence (P38532 whole entry): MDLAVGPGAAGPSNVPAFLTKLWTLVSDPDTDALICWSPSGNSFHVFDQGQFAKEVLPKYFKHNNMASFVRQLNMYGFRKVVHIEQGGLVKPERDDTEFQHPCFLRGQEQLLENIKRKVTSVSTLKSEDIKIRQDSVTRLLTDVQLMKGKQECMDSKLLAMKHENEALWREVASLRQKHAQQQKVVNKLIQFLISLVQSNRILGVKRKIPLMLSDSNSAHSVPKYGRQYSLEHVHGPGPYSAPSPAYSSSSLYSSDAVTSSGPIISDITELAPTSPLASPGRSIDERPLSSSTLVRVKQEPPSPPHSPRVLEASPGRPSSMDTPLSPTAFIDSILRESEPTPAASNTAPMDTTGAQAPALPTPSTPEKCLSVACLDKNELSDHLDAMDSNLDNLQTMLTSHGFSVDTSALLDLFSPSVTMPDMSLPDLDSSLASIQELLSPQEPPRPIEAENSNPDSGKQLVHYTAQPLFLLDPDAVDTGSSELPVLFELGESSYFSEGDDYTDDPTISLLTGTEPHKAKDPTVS

[20] = blockade of melanocortin 4 receptor signaling – cell-based, plate reader, cherry pick, counter-screen for LGR2 antagonist project, dose response (AID 743444); format: functional;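 note: transfected HEK 293 cells stimulated with alpha-MSH peptide; potency of inhibitors of the alpha-MSH evoked signal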
[21] = blockers of bursicon-stimulated LGR2 cAMP reporter – cell-based, HEK293, CRE-luciferase reporter, cherry pick, set 2, dose response (AID 743343); format: functional;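 note: transfected cells were stimulated with diluted bursicon conditioned medium after compound addition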
[22] = A549 cell cytotoxicity, dose response, cytotoxicity control, plate reader, cherry-pick, antagonist series (AID 743412); format: functional, cell-based
[23] = toxicity toward HepG2 liver cells – cell-based, plate reader, cherry-pick, antagonist series, cytotoxicity control, dose response (AID 743416); format: functional
[24] = HIV-1 AD8 envelope cell-cell fusion blockers – cherry-pick, dose response (AID 652062); format: functional, cell-based;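 note: luciferase signal from cell-cell fusion driven by HIV-1 clade B AD8 Env; potency is for inhibitors of fusion seen as a drop in luminescence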
[25] = blockers of HIV-1 ZM109 envelope-driven cell-cell fusion – HeLa effector, CEM target cells, luciferase, cherry-pick, dose response (AID 652058); format: functional, cell-based;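 note: luciferase signal from HIV-1 Env mediated cell-cell fusion of effector and target cells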

Genome polyprotein, sequence (P29990 2492-3391 limits assumed): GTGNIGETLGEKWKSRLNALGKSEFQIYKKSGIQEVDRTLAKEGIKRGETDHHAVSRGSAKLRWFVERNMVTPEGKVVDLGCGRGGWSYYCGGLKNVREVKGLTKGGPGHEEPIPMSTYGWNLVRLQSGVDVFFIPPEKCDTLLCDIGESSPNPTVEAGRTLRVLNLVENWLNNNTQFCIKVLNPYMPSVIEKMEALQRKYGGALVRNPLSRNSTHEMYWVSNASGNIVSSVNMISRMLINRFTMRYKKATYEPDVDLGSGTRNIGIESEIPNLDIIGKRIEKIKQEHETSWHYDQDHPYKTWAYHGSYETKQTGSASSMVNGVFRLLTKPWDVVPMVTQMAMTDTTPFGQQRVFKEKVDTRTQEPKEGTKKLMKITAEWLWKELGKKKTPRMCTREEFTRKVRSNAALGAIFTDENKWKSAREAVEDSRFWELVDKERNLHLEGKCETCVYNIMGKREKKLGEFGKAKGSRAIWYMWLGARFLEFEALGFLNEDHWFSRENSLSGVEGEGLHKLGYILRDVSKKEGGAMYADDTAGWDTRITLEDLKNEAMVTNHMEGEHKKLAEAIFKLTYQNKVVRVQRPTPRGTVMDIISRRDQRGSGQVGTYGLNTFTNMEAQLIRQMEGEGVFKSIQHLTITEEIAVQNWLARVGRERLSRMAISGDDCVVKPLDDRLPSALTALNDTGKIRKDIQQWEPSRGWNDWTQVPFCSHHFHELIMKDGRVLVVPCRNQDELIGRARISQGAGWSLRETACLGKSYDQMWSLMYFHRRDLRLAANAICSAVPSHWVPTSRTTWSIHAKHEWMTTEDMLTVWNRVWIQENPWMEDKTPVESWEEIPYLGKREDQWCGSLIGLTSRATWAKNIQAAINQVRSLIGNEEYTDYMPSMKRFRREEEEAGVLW

CCN(CC)CCCN(C(=O)c1cccc(C)c1)c1nc(-c2ccc(OC)cc2)cs1
AC50 [1]: 17.2 µM (active)

CCOC(=O)c1c(CSc2ccc(CC)cc2)oc2ccc(O)c(CN(C)C)c12
AC50 [2]: 30.8 µM (active) | AC50 [3]: 14.1 µM (active) | EC50 [4]: > 120 µM (not active) | EC50 [5]: 2.81 µM (active) | AC50 [1]: 15.3 µM (active) | EC50 [6]: > 120 µM (not active) | AC50 [7]: 3.05 µM (active) | EC50 [8]: > 30 µM (not active) | EC50 [9]: > 120 µM (not active)

O=C(Nc1ccc(C(F)(F)F)cc1)c1cc(-c2cccnc2)nc2ccc(Br)cc12
CC50 [10]: > 40 µM (active)

COc1cc(CC(=O)OCC(=O)c2ccc3c(c2)OCCO3)cc(OC)c1OC
EC50 [4]: 5.66 µM (active) | EC50 (BJ [11]): 15.1 µM (active) | IC50 [12]: > 80 µM (inactive) | EC50 [6]: 5.8 µM (inconclusive) | EC50 (BJ [13]): 2.14 µM (active) | EC50 [14]: 2.47 µM (active) | EC50 (BJ [15]): 1.62 µM (inconclusive) | EC50 [9]: 4.99 µM (inconclusive)

O=C1NC(=O)N(c2ccc3c(c2)OCO3)C(=O)/C1=C\c1ccc(-c2ccccc2C(=O)O)o1
IC50 (Genome polyprotein): > 100 µM (active) | IC50 [16]: 3.9 µM (active) | IC50 [17]: 75.4 µM (active)

COc1cc(/C=C2\SC(NS(=O)(=O)Cc3ccccc3)=NC2=O)c([N+](=O)[O-])cc1OC
IC50 (Genome polyprotein): 55.8 µM (active) | IC50 [18]: 9.12 µM (active)

O=C1N=C(Nc2nc3ccccc3[nH]2)c2ccccc21
AC50 (INS1): 3 µM (active) | EC50 [19]: 987 nM (inconclusive) | EC50 (BJ [11]): 24.8 µM (inconclusive) | EC50 (BJ [13]): 12.5 µM (active) | EC50 [14]: 14.9 µM (active) | EC50 (BJ [15]): 19.3 µM (active)

CCCOc1ccc(F)cc1-c1cc(C(=O)Nc2cc(OC)c(OC)c(OC)c2)[nH]n1
AC50 [20]: 31.2 µM (active) | AC50 [21]: 24 µM (active) | AC50 [22]: > 52 µM (inactive) | AC50 [23]: > 52 µM (inactive)

COc1ccc(S(=O)(=O)N[C@@H]2C=C[C@H](CC(=O)N3CCC(Cc4ccccc4)CC3)O[C@@H]2CO)cc1
AC50 [24]: 32.6 µM (active) | AC50 [25]: 19 µM (active)

COc1ccccc1S(=O)(=O)N[C@H]1CC[C@@H](CC(=O)N2CCN(C)CC2)O[C@H]1CO
AC50 [24]: 29.1 µM (active) | AC50 [25]: 0.992 µM (active)
